# Results as given in ChEMBL document CHEMBL5137039, “Therapeutic potentials and structure-activity relationship of 1,3-benzodioxole N-carbamothioyl carboxamide derivatives as selective and potent antagonists of P2X4 and P2X7 receptors” (Eur J Med Chem, 2022).
# Tests used:
# HeLa = experiment: Cytotoxicity against human HeLa cells assessed as reduction in cell viability at 50 uM after 24 hrs by MTT assay relative to control; type: toxicity, cell-based
# [1] = Cytotoxicity against human 1321N1 cells assessed as reduction in cell viability at 50 uM after 24 hrs by MTT assay relative to control; type: toxicity, cell-based; details: 1321n1, 24 h
# HEK293 = experiment: Cytotoxicity against HEK293 cells assessed as reduction in cell viability at 50 uM after 24 hrs by MTT assay relative to control; type: toxicity, cell-based; details: human, hek293, 24 h
# [2] = target: T1, P2X purinoceptor 2 (Homo sapiens) (UniProt Q9UBL9); experiment: Antagonist activity against human P2X2R stably transfected in human 1321N1 cells at 50 uM incubated for 30 mins by Fura-2 AM staining based calcium influx assay relative to control; type: cell-based; design: scale not given: the % may be the effect or the level left
# T1 sequence (whole entry): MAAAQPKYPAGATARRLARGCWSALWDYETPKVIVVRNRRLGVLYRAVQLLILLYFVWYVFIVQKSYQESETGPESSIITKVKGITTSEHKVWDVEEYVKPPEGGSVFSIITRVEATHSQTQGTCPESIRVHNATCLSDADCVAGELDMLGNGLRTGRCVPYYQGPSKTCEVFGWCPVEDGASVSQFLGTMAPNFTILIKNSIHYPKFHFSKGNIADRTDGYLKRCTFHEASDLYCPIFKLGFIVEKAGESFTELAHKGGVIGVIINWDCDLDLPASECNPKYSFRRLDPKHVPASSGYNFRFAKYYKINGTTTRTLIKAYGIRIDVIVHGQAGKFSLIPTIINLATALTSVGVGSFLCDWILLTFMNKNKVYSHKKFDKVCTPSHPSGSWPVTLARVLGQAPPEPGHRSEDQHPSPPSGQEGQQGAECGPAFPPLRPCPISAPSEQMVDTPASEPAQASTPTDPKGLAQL
# P2X purinoceptor 4 = target: T2, P2X purinoceptor 4 (Homo sapiens, UniProt Q99571); experiment: Antagonist activity against human P2X4R stably transfected in human 1321N1 cells incubated for 30 mins by Fura-2 AM staining based calcium influx assay; type: cell-based
# T2 sequence (Q99571 whole entry): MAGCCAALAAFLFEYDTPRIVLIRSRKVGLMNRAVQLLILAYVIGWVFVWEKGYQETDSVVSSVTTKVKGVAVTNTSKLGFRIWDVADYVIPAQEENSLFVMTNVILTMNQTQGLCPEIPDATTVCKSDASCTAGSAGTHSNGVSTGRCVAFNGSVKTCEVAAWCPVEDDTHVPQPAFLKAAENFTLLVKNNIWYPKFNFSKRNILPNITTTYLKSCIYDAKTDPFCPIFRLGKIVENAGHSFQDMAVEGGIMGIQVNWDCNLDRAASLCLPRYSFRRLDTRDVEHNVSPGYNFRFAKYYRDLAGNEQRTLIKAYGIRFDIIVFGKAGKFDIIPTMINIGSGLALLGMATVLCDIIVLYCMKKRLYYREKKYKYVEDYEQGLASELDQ
# P2X purinoceptor 5 [3] = target: T3, P2X purinoceptor 5 (Homo sapiens, UniProt Q93086); experiment: Antagonist activity against human P2X5R stably transfected in human 1321N1 cells at 50 uM incubated for 30 mins by Fura-2 AM staining based calcium influx assay relative to control; type: cell-based; design: scale not given: the % may be the effect or the level left
# P2X purinoceptor 7 [4] = target: T4, P2X purinoceptor 7 (Homo sapiens, UniProt Q99572); experiment: Antagonist activity against human P2X7R stably transfected in human 1321N1 cells incubated for 30 mins by Fura-2 AM staining based calcium influx assay; type: cell-based
# T4 sequence (Q99572 whole entry): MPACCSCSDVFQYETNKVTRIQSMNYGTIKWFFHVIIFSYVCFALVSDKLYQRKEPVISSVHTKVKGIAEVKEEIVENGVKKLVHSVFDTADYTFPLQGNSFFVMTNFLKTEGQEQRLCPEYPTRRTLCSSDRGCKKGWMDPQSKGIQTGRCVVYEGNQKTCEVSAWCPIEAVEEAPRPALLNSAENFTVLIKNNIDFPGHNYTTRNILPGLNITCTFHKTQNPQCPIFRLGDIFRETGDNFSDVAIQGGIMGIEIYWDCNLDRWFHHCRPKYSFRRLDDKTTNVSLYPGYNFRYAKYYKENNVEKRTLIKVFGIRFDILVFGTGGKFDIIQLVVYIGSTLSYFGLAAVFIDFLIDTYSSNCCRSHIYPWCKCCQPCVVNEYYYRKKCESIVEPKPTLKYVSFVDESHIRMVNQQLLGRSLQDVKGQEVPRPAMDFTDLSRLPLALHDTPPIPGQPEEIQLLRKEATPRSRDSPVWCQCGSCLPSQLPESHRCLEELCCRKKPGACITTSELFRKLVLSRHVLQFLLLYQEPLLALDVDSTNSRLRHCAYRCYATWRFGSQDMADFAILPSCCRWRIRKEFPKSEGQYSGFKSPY
# [5] = target: T5, P2X purinoceptor 4 (Homo sapiens) (UniProt Q99571); experiment: Antagonist activity against human P2X4R stably transfected in human 1321N1 cells at 50 uM incubated for 30 mins by Fura-2 AM staining based calcium influx assay relative to control; type: cell-based; design: scale not given: the % may be the effect or the level left
# T5 sequence (whole entry): T2 sequence (Q99571 whole entry)
# [6] = target: T6, P2X purinoceptor 7 (Homo sapiens) (UniProt Q99572); experiment: Antagonist activity against human P2X7R stably transfected in human 1321N1 cells at 50 uM incubated for 30 mins by Fura-2 AM staining based calcium influx assay relative to control; type: cell-based; design: scale not given: the % may be the effect or the level left
# T6 sequence (whole entry): T4 sequence (Q99572 whole entry)
# P2X purinoceptor 7 [7] = target: T4, P2X purinoceptor 7; experiment: Antagonist activity against human P2X7R stably transfected in human 1321N1 cells assessed as reduction in BzATP-induced activity incubated for 5 to 10 mins by EtBr staining based fluorescence assay; type: cell-based
# P2X purinoceptor 5 [8] = target: T3, P2X purinoceptor 5; experiment: Antagonist activity against human P2X5R stably transfected in human 1321N1 cells incubated for 30 mins by Fura-2 AM staining based calcium influx assay; type: cell-based
# [9] = target: T5, P2X purinoceptor 4 (Homo sapiens); experiment: Antagonist activity against human P2X4R stably transfected in human 1321N1 cells assessed as ATP Emax at 0.05 uM incubated for 30 mins by Fura-2 AM staining based calcium influx assay relative to control; type: cell-based; details: filed as antagonist
# [10] = target: T5, P2X purinoceptor 4 (Homo sapiens); experiment: Antagonist activity against human P2X4R stably transfected in human 1321N1 cells assessed as ATP Emax at 0.1 uM incubated for 30 mins by Fura-2 AM staining based calcium influx assay relative to control; type: cell-based; details: filed as antagonist
# [11] = target: T5, P2X purinoceptor 4 (Homo sapiens); experiment: Antagonist activity against human P2X4R stably transfected in human 1321N1 cells assessed as ATP Emax at 0.2 uM incubated for 30 mins by Fura-2 AM staining based calcium influx assay relative to control; type: cell-based; details: filed as antagonist
# P2X purinoceptor 2 = target: T7, P2X purinoceptor 2 (Homo sapiens, UniProt Q9UBL9); experiment: Antagonist activity against human P2X2R stably transfected in human 1321N1 cells incubated for 30 mins by Fura-2 AM staining based calcium influx assay; type: cell-based
# T7 sequence (Q9UBL9 whole entry): T1 sequence (whole entry)
# [12] = target: T6, P2X purinoceptor 7 (Homo sapiens); experiment: Antagonist activity against human P2X7R stably transfected in human 1321N1 cells assessed as BzATP Emax at 0.05 uM incubated for 30 mins by Fura-2 AM staining based calcium influx assay relative to control; type: cell-based; details: filed as antagonist
# [13] = target: T6, P2X purinoceptor 7 (Homo sapiens); experiment: Antagonist activity against human P2X7R stably transfected in human 1321N1 cells assessed as BzATP Emax at 0.1 uM incubated for 30 mins by Fura-2 AM staining based calcium influx assay relative to control; type: cell-based; details: filed as antagonist
# [14] = target: T6, P2X purinoceptor 7 (Homo sapiens); experiment: Antagonist activity against human P2X7R stably transfected in human 1321N1 cells assessed as BzATP Emax at 0.2 uM incubated for 30 mins by Fura-2 AM staining based calcium influx assay relative to control; type: cell-based
# T3 sequence (Q93086 whole entry): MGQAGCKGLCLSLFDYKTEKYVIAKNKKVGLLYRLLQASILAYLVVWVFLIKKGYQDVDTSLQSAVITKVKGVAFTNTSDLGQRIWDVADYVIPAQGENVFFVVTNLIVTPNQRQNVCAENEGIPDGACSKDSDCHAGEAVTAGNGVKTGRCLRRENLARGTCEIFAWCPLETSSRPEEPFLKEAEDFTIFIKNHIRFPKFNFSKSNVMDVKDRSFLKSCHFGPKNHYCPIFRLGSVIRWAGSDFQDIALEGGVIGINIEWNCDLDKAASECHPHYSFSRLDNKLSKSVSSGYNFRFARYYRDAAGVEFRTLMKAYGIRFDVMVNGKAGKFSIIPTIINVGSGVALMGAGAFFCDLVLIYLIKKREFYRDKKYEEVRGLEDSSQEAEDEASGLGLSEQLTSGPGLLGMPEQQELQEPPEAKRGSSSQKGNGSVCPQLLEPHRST
SMILES,Activity [2] [%],IC50 (P2X purinoceptor 4) [nM],Activity (P2X purinoceptor 5 [3]) [%],IC50 (P2X purinoceptor 7 [4]) [nM],Activity (HeLa) [%],Activity [1] [%],Activity (HEK293) [%],further results
O=C(NC(=S)Nc1ccc(Br)cc1)c1ccc2c(c1)OCO2,35,14300,38,–,7.64,3.72,2.64,Activity [5]: 31%; Activity [6]: 22%
COc1ccc(NC(=S)NC(=O)c2ccc3c(c2)OCO3)cc1,22,–,12,–,1.38,3.32,7.44,Activity ([5]; filed as antagonist): 44%; Activity [6]: 36%
O=C(NC(=S)Nc1cc(Br)cc(C(F)(F)F)c1)c1ccc2c(c1)OCO2,22,18200,17,1250,5.59,3.34,4.48,–
Cc1nc(/N=N/c2ccc(S(=O)(=O)O)cc2S(=O)(=O)O)c(COP(=O)(O)O)c(C=O)c1O,–,–,–,–,20.43,12.41,46.58,–
O=C(NC(=S)Nc1cc(Cl)c(O)c(Cl)c1)c1ccc2c(c1)OCO2,–,7640,–,1640,–,–,–,–
Cc1ccc(C(=O)Nc2ccc(S(=O)(=O)O)c3cc(S(=O)(=O)O)cc(S(=O)(=O)O)c23)cc1NC(=O)c1cccc(NC(=O)Nc2cccc(C(=O)Nc3cc(C(=O)Nc4ccc(S(=O)(=O)O)c5cc(S(=O)(=O)O)cc(S(=O)(=O)O)c45)ccc3C)c2)c1 [SURAMIN],–,4730,–,–,11.46,11.56,49.01,IC50 (P2X purinoceptor 2): 14000 nM; IC50 (P2X purinoceptor 5 [8]): 15800 nM
CC(C)c1cc(Br)c(NC(=O)Nc2cccnc2)c(Br)c1,–,–,–,–,14.81,16.7,25.19,Activity ([6]; filed as antagonist): 45%
Cc1cc(Br)ccc1NC(=S)NC(=O)c1ccc2c(c1)OCO2,18,14300,25,–,1.64,7.09,3.38,Activity [6]: 34%
O=C(NC(=S)Nc1ccc([N+](=O)[O-])cc1)c1ccc2c(c1)OCO2,–,3760,–,1890,–,–,–,IC50 (P2X purinoceptor 5 [8]): 1650 nM
COc1cccc(NC(=S)NC(=O)c2ccc3c(c2)OCO3)c1,22,–,25,–,4.18,4.15,1.95,Activity [5]: 19%; Activity [6]: 33%
O=C(O)c1ccc2c(c1)OCO2,21,–,10,–,–,–,–,Activity [5]: 29%

# Now from value to compound, other results behind:
Activity [2] [%],IC50 (P2X purinoceptor 4) [nM],Activity (P2X purinoceptor 5 [3]) [%],IC50 (P2X purinoceptor 7 [4]) [nM],SMILES,Activity (HeLa) [%],Activity [1] [%],Activity (HEK293) [%],further results
35,39,27,13100,CC(C)c1ccc(NC(=S)NC(=O)c2ccc3c(c2)OCO3)c(Br)c1,4.53,3.83,3.73,–
17,2170,23,110,NS(=O)(=O)c1cccc(NC(=S)NC(=O)c2ccc3c(c2)OCO3)c1,2.52,6.41,4.19,IC50 (P2X purinoceptor 7 [7]): 173 nM
–,1450,–,902,O=C(NC(=S)Nc1ccc(O)cc1)c1ccc2c(c1)OCO2,–,–,–,IC50 (P2X purinoceptor 5 [8]): 27600 nM; IC50 (P2X purinoceptor 7 [7]): 1110 nM
38,55,–,3560,O=C(NC(=S)Nc1c(Br)ccc(C(F)(F)F)c1Br)c1ccc2c(c1)OCO2,5.35,7.19,7.24,Emax [9]: 90%; Emax [10]: 68%; Emax [11]: 40%
39,3670,26,–,COc1ccccc1NC(=S)NC(=O)c1ccc2c(c1)OCO2,1.7,5.41,4.6,Activity [6]: 38%
–,935,–,34,O=C(NC(=S)Nc1cccnc1Cl)c1ccc2c(c1)OCO2,1.94,2.82,6.15,IC50 (P2X purinoceptor 2): 35900 nM; IC50 (P2X purinoceptor 7 [7]): 34 nM
–,908,29,18,O=C(NC(=S)Nc1cccc2cccnc12)c1ccc2c(c1)OCO2,5.45,3.04,1.42,Activity ([2]; filed as antagonist): 41%; Emax [12]: 83%; Emax [13]: 68%; Emax [14]: 29%; IC50 (P2X purinoceptor 7 [7]): 30 nM
33,1050,32,45,NS(=O)(=O)c1ccc(CCNC(=S)NC(=O)c2ccc3c(c2)OCO3)cc1,4.26,5.81,5.77,IC50 (P2X purinoceptor 7 [7]): 47 nM
–,2160,–,–,O=C(NC(=S)Nc1ccccc1O)c1ccc2c(c1)OCO2,–,–,–,–
